Results as given in ChEMBL document CHEMBL3272271, “Folate antagonists. 13. 2,4-Diamino-6-](alpha,alpha,alpha-trifluoro-m-tolyl)thio]quinazoline and related 2,4-diamino-6-[(phenyl- and naphthyl)thio]quinazolines, a unique class of antimetabolites with extraordinary antimalarial and antibacterial effects” (J Med Chem, 1978).

Assays:
[1] = test system: Plasmodium gallinaceum; assay: Antimalarial activity against sporozoite-induced Plasmodium gallinaceum infected in white leghorn chicken assessed as increase in mean survival days of host at 120 mg/kg, sc administered 72 hrs after infection relative to control; format: functional; settings: route subcutaneous
[2] = test system: Plasmodium berghei; assay: Antimalarial activity against Plasmodium berghei infected in mouse assessed as increase in mean survival days of host at 10 mg/kg, sc administered 72 hrs after infection relative to control; format: functional; settings: route subcutaneous
[3] = test system: Plasmodium berghei; assay: Antimalarial activity against Plasmodium berghei infected in mouse assessed as increase in mean survival days of host at 160 mg/kg, sc administered 72 hrs after infection relative to control; format: functional; settings: route subcutaneous
[4] = test system: Plasmodium gallinaceum; assay: Antimalarial activity against sporozoite-induced Plasmodium gallinaceum infected in white leghorn chicken assessed as increase in mean survival days of host at 60 mg/kg, sc administered 72 hrs after infection relative to control; format: functional; settings: route subcutaneous
[5] = test system: Plasmodium berghei; assay: Antimalarial activity against trophozoite-induced Plasmodium berghei infected in mouse assessed as daily dose required to suppression of 90% parasite infection administered with diet for 6 days; format: functional
[6] = test system: Gallus gallus; assay: Toxicity in sporozoite-induced Plasmodium gallinaceum infected white leghorn chicken assessed as mortality at 480 mg/kg, sc administered 72 hrs after infection measured up to 6 days; format: organism-based; parameters: dose 480 mg/kg, route subcutaneous; settings: in vivo
[7] = test system: Plasmodium berghei; assay: Antimalarial activity against Plasmodium berghei infected in mouse assessed as increase in mean survival days of host at 80 mg/kg, sc administered 72 hrs after infection relative to control; format: functional; settings: route subcutaneous
[8] = test system: Plasmodium berghei; assay: Ratio of quinine hydrochloride SD90 to compound SD90 for trophozoite-induced Plasmodium berghei infected in mouse assessed as daily dose required to suppression of 90% parasite infection administered with diet for 6 days; format: functional
[9] = test system: Plasmodium berghei; assay: Antimalarial activity against Plasmodium berghei infected in mouse assessed as increase in mean survival days of host at 40 mg/kg, sc administered 72 hrs after infection relative to control; format: functional; settings: route subcutaneous
[10] = test system: Plasmodium berghei; assay: Antimalarial activity against Plasmodium berghei infected in mouse assessed as increase in mean survival days of host at 20 mg/kg, sc administered 72 hrs after infection relative to control; format: functional; settings: route subcutaneous
[11] = test system: Plasmodium gallinaceum; assay: Antimalarial activity against sporozoite-induced Plasmodium gallinaceum infected in white leghorn chicken assessed as increase in mean survival days of host at 30 mg/kg, sc administered 72 hrs after infection relative to control; format: functional; settings: route subcutaneous
[12] = test system: Plasmodium gallinaceum; assay: Antimalarial activity against sporozoite-induced Plasmodium gallinaceum infected in white leghorn chicken assessed as increase in mean survival days of host at 7.5 mg/kg, sc administered 72 hrs after infection relative to control; format: functional; settings: route subcutaneous
[13] = test system: Plasmodium gallinaceum; assay: Antimalarial activity against sporozoite-induced Plasmodium gallinaceum infected in white leghorn chicken assessed as increase in mean survival days of host at 15 mg/kg, sc administered 72 hrs after infection relative to control; format: functional; settings: route subcutaneous
[14] = test system: Plasmodium gallinaceum; assay: Antimalarial activity against sporozoite-induced Plasmodium gallinaceum infected in white leghorn chicken assessed as increase in mean survival days of host at 240 mg/kg, sc administered 72 hrs after infection relative to control; format: functional; settings: route subcutaneous

Compound `CC(=O)O.Nc1nc(N)c2cc(NCc3ccc(Cl)c(Cl)c3)ccc2n1` has an MST [1] of 0 days, an MST [2] of 0.7 days and an MST [3] of 9.9 days. For the same compound, the MST [4] was 0 days, the SD90 [5] was 9.5 mg/kg/day and the Activity [6] was “Toxic”. It also gave an MST [7] of 12.9 days, a Ratio [8] of 7.9 and an MST [9] of 7.1 days. It also gave an MST [10] of 2.5 days, an MST [11] of 0 days and an MST [12] of 2.3 days. It also gave an MST [13] of 3.1 days and an MST [14] of 0 days.
